Data published in article PMC9529664 (Current Research in Food Science, 2022).
Residues, ends and D or L forms follow the SMILES beside them.

target: DPP-IV enzyme (Homo sapiens, UniProt P27487); test: biochemical
Sequence (P27487 whole entry, species assumed): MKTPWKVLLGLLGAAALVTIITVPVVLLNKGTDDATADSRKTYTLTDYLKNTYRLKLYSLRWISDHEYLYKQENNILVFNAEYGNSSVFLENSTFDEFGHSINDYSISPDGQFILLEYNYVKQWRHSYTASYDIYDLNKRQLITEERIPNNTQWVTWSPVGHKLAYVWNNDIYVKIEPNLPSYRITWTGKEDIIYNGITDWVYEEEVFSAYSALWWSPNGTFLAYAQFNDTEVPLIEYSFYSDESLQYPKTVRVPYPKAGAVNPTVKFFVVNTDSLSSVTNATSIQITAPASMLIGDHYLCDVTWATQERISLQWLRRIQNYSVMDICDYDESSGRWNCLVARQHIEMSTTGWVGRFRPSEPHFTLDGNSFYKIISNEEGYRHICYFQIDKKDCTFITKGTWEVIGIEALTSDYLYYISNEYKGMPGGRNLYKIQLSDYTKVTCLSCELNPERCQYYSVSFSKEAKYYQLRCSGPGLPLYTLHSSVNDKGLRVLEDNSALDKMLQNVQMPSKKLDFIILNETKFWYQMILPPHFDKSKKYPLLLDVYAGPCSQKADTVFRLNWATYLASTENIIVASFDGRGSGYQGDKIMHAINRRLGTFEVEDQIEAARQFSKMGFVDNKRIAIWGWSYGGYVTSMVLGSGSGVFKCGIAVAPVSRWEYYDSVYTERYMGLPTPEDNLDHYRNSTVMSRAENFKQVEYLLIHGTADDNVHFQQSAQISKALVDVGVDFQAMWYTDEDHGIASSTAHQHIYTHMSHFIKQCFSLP

SMILES	IC50 [mM]
C[C@@H](O)[C@H](NC(=O)[C@H](CC(N)=O)NC(=O)CNC(=O)[C@H](Cc1ccccc1)NC(=O)[C@@H]1CCCN1)C(=O)N[C@@H](Cc1c[nH]cn1)C(=O)N[C@@H](CC(N)=O)C(=O)N[C@@H](CC(N)=O)C(=O)N[C@@H](Cc1ccccc1)C(=O)N[C@@H](CCCCN)C(=O)O [D1] (H-PFGNTHNNFK-OH)	8.51
CC[C@H](C)[C@H](N)C(=O)N1CCC[C@H]1C(=O)N[C@@H](Cc1c[nH]cn1)C(=O)N[C@@H](CCC(=O)O)C(=O)N[C@@H](CO)C(=O)N[C@H](C(=O)N[C@@H](CC(=O)O)C(=O)N[C@H](C(=O)N[C@H](C(=O)N[C@@H](CCCCN)C(=O)O)[C@@H](C)CC)C(C)C)C(C)C [D22] (H-IPHESVDVIK-OH)	2.69
CSCC[C@H](NC(=O)[C@H](Cc1c[nH]cn1)NC(=O)[C@H](CC(N)=O)NC(=O)[C@H](CC(N)=O)NC(=O)[C@H](Cc1c[nH]cn1)NC(=O)[C@H](CCCCN)NC(=O)[C@H](CO)NC(=O)[C@H](CC(C)C)NC(=O)[C@H](CC(=O)O)NC(=O)[C@@H]1CCCN1)C(=O)O [D35] (H-PDLSKHNNHM-OH)	3.88
CC(C)[C@H](NC(=O)[C@H](C)NC(=O)[C@H](CCC(=O)O)NC(=O)[C@H](C)NC(=O)[C@@H]1CCCN1C(=O)[C@@H](N)CCC(=O)O)C(=O)NCC(=O)N[C@@H](CC(=O)O)C(=O)N[C@@H](Cc1c[nH]c2ccccc12)C(=O)N[C@@H](CCCNC(=N)N)C(=O)O [D37] (H-EPAEAVGDWR-OH)	0.1
